Data as given in patent publication US8623855B2, “Azetidinone compounds and medical use thereof” (Zhejiang Hisun Pharmaceutical Co., Ltd., priority 2009, dated 2014).
Read-outs that look alike come from different tables or passages of the source.

Tests used:
[1] = tested on: hypercholesterolemia golden hamster model; assay: In vivo pharmacodynamic screening in hypercholesterolemia model of golden hamster (plasma TC and LDL-C); settings: for LDL-C after administration / TC after administration / LDL after administration: 1 week, plasma; for reduction of plasma TC and LDL-C levels (in words): significant statistical difference; for effect of lowering cholesterol (screening result in words): in vivo pharmacodynamic screening test, Ezetimibe as positive control; for efficacy compared with the positive control (in words): positive control Ezetimibe
Experimental: 1. Establishment of Hypercholesterolemia Model of Golden Hamster:
The animals were subjected to acclimation feeding for 1 week with free feeding and drinking under a lighting condition of 10 h/14 h. On Day 8, the animals were raised with high fat feed (consisting of 0.5% cholesterol, 20% palm oil, 79.5% basal feed) for 1 week. Then, each animal was anesthetized by ether. After weighing, 0.5 ml blood was obtained from orbital vein, anticoagulated with heparin and centrifuged at 5000 rpm for 10 min. The plasma was collected and the levels of plasma TC (total cholesterol) and LDL-C (low density lipoprotein cholesterol) were determined by automatic biochemical analyzer. Animals with plasma TC of 9-15 mmol/L were selected as model animals (refer to the following reference for the method of animal modeling: Burrier, R. E., Smith, A. A., Mcgregor, D. G, Hoos, L. M., Zilli, D. L., Davis, H. R. The effect of acyl CoA: cholesterol acyltransferase inhibition on the uptake, esterification and secretion of cholesterol by the hamster small intestine. J. Pharm. Exp. Ther., 1995, 272, 156-163).
The animals were grouped according to TC and LDL-C levels and weight with 6 animals per group. Ezetimibe was used as positive control. The animals were intragastrically administered at a volume of 5 ml/kg for 1 week. Each animal was anesthetized by ether. After weighing, 0.5 ml blood was taken from orbital vein, anticoagulated with heparin, and centrifuged at 5000 rpm for 10 min. The plasma was collected and plasma TC (total cholesterol) and LDL-C (low density lipoprotein cholesterol) levels were determined by automatic biochemical analyzer to evaluate the efficacy of the compounds.

normal guinea pig = assay: Effect on blood lipid level of normal guinea pigs; type: in vivo; settings: for HDL after administration / LDL after administration / TC after administration / TG after administration: Table 13
[2] = Mesocricetus auratus, po, 168 h, Table 2, read-out: Reducing LDL-C %
[3] = Mesocricetus auratus, po, 168 h, Table 2, read-out: Reducing TC %
[4] = Mesocricetus auratus, po, 168 h, Table 4, 1 mg/kg, read-out: Reducing TC %
[5] = Mesocricetus auratus, po, 168 h, Table 8, 1 mg/kg, read-out: Reducing LDL-C %
[6] = Mesocricetus auratus, po, 168 h, Table 8, 1 mg/kg, read-out: Reducing TC %
[7] = Mesocricetus auratus, po, 168 h, Table 10, 1 mg/kg, read-out: Reducing LDL-C %
[8] = Mesocricetus auratus, po, 168 h, Table 10, 1 mg/kg, read-out: Reducing TC %
[9] = Table 1, baseline of group dosed 2 mg/kg
[10] = Table 11, baseline of group dosed 1 mg/kg
[11] = Table 1, 0.4 mg/kg intragastric
[12] = golden hamster hypercholesterolemic model
[13] = Mesocricetus auratus, po, 168 h, Table 12, read-out: Reducing LDL-C %
[14] = Mesocricetus auratus, po, 168 h, Table 12, read-out: Reducing TC %
[15] = Table 11, baseline of group dosed 3 mg/kg
[16] = Table 11, 10 mg/kg intragastric
[17] = Table 11, baseline of group dosed 10 mg/kg

O=C1[C@H](CC[C@H](O)c2ccc(F)cc2)[C@@H](c2ccc(O)cc2)N1c1ccc(F)cc1 [Ezetimibe, reference compound]
inhibition in vivo at 2 mg/kg [1, 2]: 77.6%
inhibition in vivo at 2 mg/kg [1, 3]: 57.4%
inhibition in vivo at 1 mg/kg [1, 4]: 58.8%
inhibition in vivo at 1 mg/kg ([1]; Mesocricetus auratus, po, 168 h, Table 6, 1 mg/kg, read-out: Reducing LDL-C %): 76%
inhibition in vivo at 1 mg/kg ([1]; Mesocricetus auratus, po, 168 h, Table 6, 1 mg/kg, read-out: Reducing TC %): 58.3%
inhibition in vivo at 1 mg/kg [1, 5]: 64.2%
inhibition in vivo at 1 mg/kg [1, 6]: 48.1%
inhibition in vivo at 1 mg/kg [1, 7]: 68.2%
inhibition in vivo at 1 mg/kg [1, 8]: 64.4%
inhibition in vivo at 1 mg/kg ([1]; Mesocricetus auratus, po, 168 h, Table 12, 1 mg/kg, read-out: Reducing LDL-C %): 60.8%
inhibition in vivo at 1 mg/kg ([1]; Mesocricetus auratus, po, 168 h, Table 12, 1 mg/kg, read-out: Reducing TC %): 58.5%
LDL-C after administration ([1]; Table 1, 2 mg/kg intragastric): 0.57 ± 0.34 mmol/L
TC after administration ([1]; Table 1, 2 mg/kg intragastric): 4.21 ± 0.68 mmol/L
LDL-C before administration [1, 9]: 2.55 ± 0.96 mmol/L
LDL after administration ([1]; Table 3, 1 mg/kg intragastric): 1.16 ± 0.44 mmol/L
TC after administration ([1]; Table 3, 1 mg/kg intragastric): 5.62 ± 0.48 mmol/L
Reducing LDL % ([1]; Table 4, 1 mg/kg): 36.0%
LDL after administration ([1]; Table 5, 1 mg/kg intragastric): 1.3 mmol/L
TC after administration ([1]; Table 5, 1 mg/kg intragastric): 4.51 mmol/L
LDL after administration ([1]; Table 7, 1 mg/kg intragastric): 1.62 mmol/L
TC after administration ([1]; Table 7, 1 mg/kg intragastric): 5.58 mmol/L
LDL after administration ([1]; Table 9, 1 mg/kg intragastric): 1.0 mmol/L
TC after administration ([1]; Table 9, 1 mg/kg intragastric): 5.45 mmol/L
LDL-C after administration ([1]; Table 11, 1 mg/kg intragastric): 1.13
TC after administration ([1]; Table 11, 1 mg/kg intragastric): 5.29
LDL-C before administration [1, 10]: 2.88 ± 0.79
TC before administration [1, 10]: 12.74 ± 1.44
HDL after administration (normal guinea pig; 2.5 mg/kg): 0.41 mmol/L
LDL after administration (normal guinea pig; 2.5 mg/kg): 0.99 mmol/L
TC after administration (normal guinea pig; 2.5 mg/kg): 1.14 ± 0.24 mmol/L
TG after administration (normal guinea pig; 2.5 mg/kg): 0.41 ± 0.12 mmol/L

O=C1[C@H](C/C=C(\CO)c2ccc(F)cc2)[C@@H](c2ccc(O)cc2)N1c1ccc(F)cc1 [I-1(Z), (3R,4S)-1-(4-fluorophenyl)-3-[(Z)-3-(4-fluorophenyl)-4-hydroxy-but-2-enyl]-4-(4-hydroxyphenyl)azetidin-2-one]
inhibition in vivo at 0.4 mg/kg [1, 2]: 32.7%
inhibition in vivo at 0.4 mg/kg [1, 3]: 33.7%
inhibition in vivo at 2 mg/kg [1, 2]: 72.4%
inhibition in vivo at 2 mg/kg [1, 3]: 49.7%
inhibition in vivo at 10 mg/kg [1, 2]: 83.1%
inhibition in vivo at 10 mg/kg [1, 3]: 55.9%
inhibition in vivo at 1 mg/kg [1, 4]: 57.5%
inhibition in vivo at 4 mg/kg ([1]; Mesocricetus auratus, po, 168 h, Table 4, 4 mg/kg, read-out: Reducing TC %): 67.9%
LDL-C after administration [1, 11]: 1.52 ± 0.31 mmol/L
TC after administration [1, 11]: 6.46 ± 0.58 mmol/L
LDL-C after administration ([1]; Table 1, 2 mg/kg intragastric): 0.71 ± 0.49 mmol/L
TC after administration ([1]; Table 1, 2 mg/kg intragastric): 4.9 ± 0.62 mmol/L
LDL-C after administration ([1]; Table 1, 10 mg/kg intragastric): 0.42 ± 0.2 mmol/L
TC after administration ([1]; Table 1, 10 mg/kg intragastric): 4.3 ± 0.85 mmol/L
LDL-C before administration ([1]; Table 1, baseline of group dosed 0.4 mg/kg): 2.26 ± 0.65 mmol/L
LDL-C before administration [1, 9]: 2.57 ± 0.47 mmol/L
LDL-C before administration ([1]; Table 1, baseline of group dosed 10 mg/kg): 2.48 ± 0.67 mmol/L
LDL after administration ([1]; Table 3, 1 mg/kg intragastric): 1.19 ± 0.16 mmol/L
TC after administration ([1]; Table 3, 1 mg/kg intragastric): 5.79 ± 0.99 mmol/L
LDL after administration ([1]; Table 3, 4 mg/kg intragastric): 0.99 ± 0.28 mmol/L
TC after administration ([1]; Table 3, 4 mg/kg intragastric): 4.37 ± 0.59 mmol/L
Reducing LDL % ([1]; Table 4, 1 mg/kg): 35.7%
Reducing LDL % ([1]; Table 4, 4 mg/kg): 46.2%
effect compared with positive control Ezetimibe at the same dose (in words) ([1]; golden hamster hypercholesterolemic model, same dose): the same as that of the positive control
reduction of plasma TC and LDL-C levels (in words) [1, 12]: can significantly reduce the plasma TC and LDL-C levels
effect of lowering cholesterol (screening result in words) [1]: have the effect of lowering cholesterol
efficacy compared with the positive control (in words) [1]: more similar to the positive control
HDL after administration (normal guinea pig; 0.1 mg/kg): 0.47 mmol/L
LDL after administration (normal guinea pig; 0.1 mg/kg): 1.73 mmol/L
TC after administration (normal guinea pig; 0.1 mg/kg): 1.77 ± 0.43 mmol/L
TG after administration (normal guinea pig; 0.1 mg/kg): 0.38 ± 0.05 mmol/L
HDL after administration (normal guinea pig; 0.5 mg/kg): 0.4 mmol/L
LDL after administration (normal guinea pig; 0.5 mg/kg): 1.75 mmol/L
TC after administration (normal guinea pig; 0.5 mg/kg): 1.9 ± 0.2 mmol/L
TG after administration (normal guinea pig; 0.5 mg/kg): 0.44 ± 0.06 mmol/L
HDL after administration (normal guinea pig; 2.5 mg/kg): 0.47 mmol/L
LDL after administration (normal guinea pig; 2.5 mg/kg): 0.86 mmol/L
TC after administration (normal guinea pig; 2.5 mg/kg): 1.17 ± 0.25 mmol/L
TG after administration (normal guinea pig; 2.5 mg/kg): 0.31 ± 0.12 mmol/L
reduction of plasma TC and LDL-C levels (in words) (normal guinea pig; normal guinea pigs): can significantly reduce the plasma TC and LDL-C levels
effect compared with positive control Ezetimibe at the same dose (in words) (normal guinea pig; normal guinea pigs, same dose): the same as that of the positive control

O=C1[C@H](C/C=C(\CO)c2ccc(F)cc2)[C@@H](c2ccc(OCc3ccccc3)cc2)N1c1ccc(F)cc1 [I-4(Z)]
inhibition in vivo at 5 mg/kg [1, 13]: 53.5%
inhibition in vivo at 5 mg/kg [1, 14]: 49.1%
LDL-C after administration ([1]; Table 11, 3 mg/kg intragastric): 1.51
TC after administration ([1]; Table 11, 3 mg/kg intragastric): 6.48
LDL-C before administration [1, 15]: 3.25 ± 0.79
TC before administration [1, 15]: 12.73 ± 1.27
reduction of plasma TC and LDL-C levels (in words) [1, 12]: can significantly reduce the plasma TC and LDL-C levels
effect of lowering cholesterol (screening result in words) [1]: have the effect of lowering cholesterol
efficacy compared with the positive control (in words) [1]: more similar to the positive control

O=C1[C@H](C/C=C(\CO)c2ccc(F)cc2)[C@@H](c2ccc(Oc3ccccc3)cc2)N1c1ccc(F)cc1 [I-3(Z)]
inhibition in vivo at 10 mg/kg [1, 13]: 66.3%
inhibition in vivo at 10 mg/kg [1, 14]: 50.8%
LDL-C after administration [1, 16]: 1.14
TC after administration [1, 16]: 6.23
LDL-C before administration [1, 17]: 3.38 ± 0.84
TC before administration [1, 17]: 12.67 ± 1.35
reduction of plasma TC and LDL-C levels (in words) [1, 12]: can significantly reduce the plasma TC and LDL-C levels
effect of lowering cholesterol (screening result in words) [1]: have the effect of lowering cholesterol
efficacy compared with the positive control (in words) [1]: more similar to the positive control

CC(=O)OC/C(=C\C[C@H]1C(=O)N(c2ccc(F)cc2)[C@@H]1c1ccc(OC(C)=O)cc1)c1ccc(F)cc1 [I-11(Z), (3R,4S)-3-[(Z)-4-acetoxy-3-(4-fluorophenyl)-but-2-enyl]-4-(4-acetoxyphenyl)-1-(4-fluorophenyl)azetidin-2-one]
inhibition in vivo at 1 mg/kg [1, 7]: 47.7%
inhibition in vivo at 1 mg/kg [1, 8]: 48%
inhibition in vivo at 10 mg/kg ([1]; Mesocricetus auratus, po, 168 h, Table 10, read-out: Reducing LDL-C %): 59.2%
inhibition in vivo at 10 mg/kg ([1]; Mesocricetus auratus, po, 168 h, Table 10, read-out: Reducing TC %): 60.2%
LDL after administration ([1]; Table 9, 1 mg/kg intragastric): 1.65 mmol/L
TC after administration ([1]; Table 9, 1 mg/kg intragastric): 7.98 mmol/L
LDL after administration ([1]; Table 9, 10 mg/kg intragastric): 1.28 mmol/L
TC after administration ([1]; Table 9, 10 mg/kg intragastric): 6.11 mmol/L
reduction of plasma TC and LDL-C levels (in words) [1, 12]: can significantly reduce the plasma TC and LDL-C levels
effect of lowering cholesterol (screening result in words) [1]: have the effect of lowering cholesterol

O=C(OC/C(=C\C[C@H]1C(=O)N(c2ccc(F)cc2)[C@@H]1c1ccc(O)cc1)c1ccc(F)cc1)c1ccc(F)cc1 [I-14(Z)]
inhibition in vivo at 1 mg/kg [1, 5]: 28.6%
inhibition in vivo at 1 mg/kg [1, 6]: 13.5%
inhibition in vivo at 3 mg/kg ([1]; Mesocricetus auratus, po, 168 h, Table 8, read-out: Reducing LDL-C %): 52.3%
inhibition in vivo at 3 mg/kg ([1]; Mesocricetus auratus, po, 168 h, Table 8, read-out: Reducing TC %): 44.4%
LDL after administration ([1]; Table 7, 1 mg/kg intragastric): 2.56 mmol/L
TC after administration ([1]; Table 7, 1 mg/kg intragastric): 9.34 mmol/L
LDL after administration ([1]; Table 7, 3 mg/kg intragastric): 2.01 mmol/L
TC after administration ([1]; Table 7, 3 mg/kg intragastric): 6.06 mmol/L
reduction of plasma TC and LDL-C levels (in words) [1, 12]: can significantly reduce the plasma TC and LDL-C levels
effect of lowering cholesterol (screening result in words) [1]: have the effect of lowering cholesterol
